pIC50: −log10 of the molar value. Non-standard residues stand in square brackets, D forms with d. Residues, ends and D or L forms follow the SMILES beside them. ξ: configuration not given here. *: point of attachment. Phe(F5) = N[C@@H](Cc1c(F)c(F)c(F)c(F)c1F)C(=O)O; Desaminotyrosyl = O=C(CCc1ccc(O)cc1)*; NMeY = CN[C@@H](Cc1ccc(O)cc1)C(=O)O; Agmatine = N=C(N)NCCCCN*; NMeA = CN[C@@H](C)C(=O)O; Nle = CCCC[C@H](N)C(=O)O; Orn = NCCC[C@H](N)C(=O)O; Abu = CC[C@H](N)C(=O)O; Ava = NCCCCC(=O)O; GABA = NCCCC(=O)O; ξA = CC(N)C(=O)O
Legend:
[1] = tested on: GH release; assay: In vivo endocrine activity, GH release after subcutaneous administration (Table 9); conditions: rat; for GH releasing potency relative to JI-38 (=1): subcutaneous (s.c.) injection
Method: Subcutaneous Administration. Adult male rats were used and anesthetized with pentobarbital (6 mg/100 g, b.w.), by i.p. injection. […] Blood samples were taken from the jugular vein 5, 15 and/or 30 minutes after the injection. The blood samples were centrifuged, plasma was removed and the GH level was measured byELISA. The results are summarized in terms of potency in Table 9.

[2] = biological target: T1, GHRH receptor (Homo sapiens, UniProt Q02643); assay: GHRH receptor binding, competition with 125I-labeled JV-1-42, human pituitary membrane homogenates (Table 7); set-up: Normal human pituitaries were purchased from the National Hormone and Peptide Program; tissue National Hormone and Peptide Program (A.F. Parlow, Harbor-UCLA Medical Center, Torrance, Calif.); host or cells: normal human pituitary, membrane fraction; conditions: for Relative affinity (Binding potency) vs JI-38: JI-38 = 1, Table 7
T1 sequence (Q02643 23-423): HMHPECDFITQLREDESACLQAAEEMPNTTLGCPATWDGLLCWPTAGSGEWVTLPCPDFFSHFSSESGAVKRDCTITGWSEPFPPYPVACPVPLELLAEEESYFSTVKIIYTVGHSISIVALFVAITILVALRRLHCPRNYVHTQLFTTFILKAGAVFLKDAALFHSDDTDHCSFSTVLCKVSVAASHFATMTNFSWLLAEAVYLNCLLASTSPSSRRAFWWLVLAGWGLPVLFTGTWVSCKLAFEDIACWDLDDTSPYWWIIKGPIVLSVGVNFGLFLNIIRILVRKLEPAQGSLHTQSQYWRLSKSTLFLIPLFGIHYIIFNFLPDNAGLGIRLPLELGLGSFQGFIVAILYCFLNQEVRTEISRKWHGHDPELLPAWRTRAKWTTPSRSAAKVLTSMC
Source text: Normal human pituitaries were purchased from the National Hormone and Peptide Program (A.F. Parlow, Los Angeles, County Harbor-UCLA Medical Center, Torrance, Calif.).

| Relative affinity (Binding potency) vs JI-38 [2] | Compound | GH releasing potency relative to JI-38 (=1) ([1]; 5 min after) | GH releasing potency relative to JI-38 (=1) ([1]; 15 min after) | GH releasing potency relative to JI-38 (=1) ([1]; 30 min after) | pIC50 ([2]; 125I-JV-1-42, human pituitary membranes, Table 7) | Stimulation of growth hormone levels after subcutaneous administration (in words) ([1]; s.c.) |
| --- | --- | --- | --- | --- | --- | --- |
| 1.14 | CCCC[C@H](NC(=O)[C@@H](NC(=O)[C@H](CC(=O)O)NC(=O)[C@H](CCC(N)=O)NC(=O)[C@H](CC(C)C)NC(=O)[C@H](CC(C)C)NC(=O)[C@H](CCCN)NC(=O)[C@H](CCCNC(=N)N)NC(=O)[C@H](C)NC(=O)[C@H](CO)NC(=O)[C@H](CC(C)C)NC(=O)[C@H](CCC(N)=O)NC(=O)[C@H](CC)NC(=O)[C@H](CC(C)C)NC(=O)[C@@H](NC(=O)[C@H](CCCN)NC(=O)[C@H](CCCNC(=N)N)NC(=O)[C@H](Cc1ccc(O)cc1)NC(=O)[C@H](CO)NC(=O)[C@H](CCC(N)=O)NC(=O)[C@@H](NC(=O)[C@H](Cc1ccccc1)NC(=O)[C@@H](NC(=O)[C@H](C)NC(=O)[C@H](CC(=O)O)NC(=O)C(C)NC(=O)[C@H](Cc1ccc(O)cc1)NC)[C@@H](C)CC)[C@@H](C)O)C(C)C)[C@@H](C)CC)C(=O)N[C@@H](CC(=O)O)C(=O)N[C@@H](CCCNC(=N)N)C(=O)NCCCCC(N)=O (stereo partly drawn) [Peptide P-22325, [N—Me-Tyr^1, Gln^8, Orn^12, Abu^15, Orn^21, Nle^27, Asp^28, Apa^30]hGHRH (1-30)NH2] (H-[NMeY][ξA]DAIFTQSYR[Orn]VL[Abu]QLSAR[Orn]LLQDI[Nle]DR[Ava]-NH2) | 0.33 | 0.68 | 1.03 |  |  |
| 4.07 | CCCC[C@H](NC(=O)[C@@H](NC(=O)[C@H](CC(=O)O)NC(=O)[C@H](CCC(N)=O)NC(=O)[C@H](CC(C)C)NC(=O)[C@H](CC(C)C)NC(=O)[C@H](CCCN)NC(=O)[C@H](CCCNC(=N)N)NC(=O)[C@H](C)NC(=O)[C@H](CO)NC(=O)[C@H](CC(C)C)NC(=O)[C@H](CCC(N)=O)NC(=O)[C@H](CC)NC(=O)[C@H](CC(C)C)NC(=O)[C@@H](NC(=O)[C@H](CCCN)NC(=O)[C@H](CCCNC(=N)N)NC(=O)[C@H](Cc1ccc(O)cc1)NC(=O)[C@H](CO)NC(=O)[C@H](CC(N)=O)NC(=O)[C@@H](NC(=O)[C@H](Cc1ccccc1)NC(=O)[C@@H](NC(=O)[C@H](C)NC(=O)[C@H](CC(=O)O)NC(=O)[C@@H](C)NC(=O)[C@H](Cc1ccc(O)cc1)NC)[C@@H](C)CC)[C@@H](C)O)C(C)C)[C@@H](C)CC)C(=O)N[C@@H](CO)C(=O)N[C@@H](CCCNC(=N)N)C(=O)NCCCC(N)=O [Peptide P-25501, [N—Me-Tyr^1, D-Ala^2, Orn^12, Abu^15, Orn^21, Nle^27, Gab^30]hGHRH(1-30)NH2] (H-[NMeY][dA]DAIFTNSYR[Orn]VL[Abu]QLSAR[Orn]LLQDI[Nle]SR[GABA]-NH2) | 1.40 | 1.36 | 1.63 |  | stimulated greater growth hormone levels than hGHRH or JI-38 |
| 3.67 | CCCC[C@H](NC(=O)[C@@H](NC(=O)[C@H](CC(=O)O)NC(=O)[C@H](CCC(N)=O)NC(=O)[C@H](CC(C)C)NC(=O)[C@H](CC(C)C)NC(=O)[C@H](CCCN)NC(=O)[C@H](CCCNC(=N)N)NC(=O)[C@H](C)NC(=O)[C@H](CO)NC(=O)[C@H](CC(C)C)NC(=O)[C@H](CCC(N)=O)NC(=O)[C@H](CC)NC(=O)[C@H](CC(C)C)NC(=O)[C@@H](NC(=O)[C@H](CCCN)NC(=O)[C@H](CCCNC(=N)N)NC(=O)[C@H](Cc1ccc(O)cc1)NC(=O)[C@H](CO)NC(=O)[C@H](CC(N)=O)NC(=O)[C@@H](NC(=O)[C@H](Cc1ccccc1)NC(=O)[C@@H](NC(=O)[C@H](C)NC(=O)[C@H](CC(=O)O)NC(=O)[C@H](CC)NC(=O)[C@H](Cc1ccc(O)cc1)NC)[C@@H](C)CC)[C@@H](C)O)C(C)C)[C@@H](C)CC)C(=O)N[C@@H](CO)C(=O)N[C@@H](CCCNC(=N)N)C(=O)NCCCC(N)=O [Peptide P-25503, [N—Me-Tyr^1, Abu^2, Orn^12, Abu^15, Orn^21, Nle^27, Gab^30]hGHRH(1-30)NH2] (H-[NMeY][Abu]DAIFTNSYR[Orn]VL[Abu]QLSAR[Orn]LLQDI[Nle]SR[GABA]-NH2) | 0.55 | 0.64 | 0.63 |  |  |
|  | [N—Me-D-Tyr^1, D-Ala^2, Gln^8, Orn^12, Abu^15, Orn^21, Nle^27, Asp^28]hGHRH(1-29)NH—CH3 [Peptide P-27425] |  | 0.49 | 0.31 |  |  |
|  | [N—Me-Tyr^1, D-Ala^2, Ala^8, Orn^12, Abu^15, Orn^21, Nle^27, Asp^28]hGHRH (1-29)NH—CH3 [Peptide P-27412] |  | 1.10 | 1.29 |  |  |
|  | [N—Me-Tyr^1, D-Ala^2, Gln^8, Orn^12, Abu^15, Orn^21, Nle^27, Asp^28, Gln-Gab^30] hGHRH](1-30)NH2 [Peptide P-29701] | 0.92 | 1.30 | 1.55 |  |  |
|  | [N—Me-Tyr^1, D-Ala^2, Thr^8, Orn^12, Abu^15, Orn^21, Nle^27, Asp^28, Agm^29] hGHRH (1-29)NH2 [Peptide P-20360] |  | 0.24 | 0.39 |  |  |
|  | [N—Me-Tyr^1, Gln^8, Orn^12, Abu^15, Orn^21, Nle^27, Agm^29]hGHRH(1-29)NH2 [Peptide P-20373] |  | 0.23 | 0.88 |  |  |

| Compound | Relative affinity (Binding potency) vs JI-38 [2] | GH releasing potency relative to JI-38 (=1) ([1]; 5 min after) | GH releasing potency relative to JI-38 (=1) ([1]; 15 min after) | GH releasing potency relative to JI-38 (=1) ([1]; 30 min after) | pIC50 ([2]; 125I-JV-1-42, human pituitary membranes, Table 7) | Stimulation of growth hormone levels after subcutaneous administration (in words) ([1]; s.c.) |
| --- | --- | --- | --- | --- | --- | --- |
| CCCC[C@H](NC(=O)[C@@H](NC(=O)[C@H](CC(=O)O)NC(=O)[C@H](CCC(N)=O)NC(=O)[C@H](CC(C)C)NC(=O)[C@H](CC(C)C)NC(=O)[C@H](CCCN)NC(=O)[C@H](CCCNC(=N)N)NC(=O)[C@H](C)NC(=O)[C@H](CO)NC(=O)[C@H](CC(C)C)NC(=O)[C@H](CCC(N)=O)NC(=O)[C@H](CC)NC(=O)[C@H](CC(C)C)NC(=O)[C@@H](NC(=O)[C@H](CCCN)NC(=O)[C@H](CCCNC(=N)N)NC(=O)[C@H](Cc1ccc(O)cc1)NC(=O)[C@H](CO)NC(=O)[C@H](C)N(C)C(=O)[C@@H](NC(=O)[C@H](Cc1ccccc1)NC(=O)[C@@H](NC(=O)[C@H](C)NC(=O)[C@H](CC(=O)O)NC(=O)[C@@H](C)NC(=O)CCc1ccc(O)cc1)[C@@H](C)CC)[C@@H](C)O)C(C)C)[C@@H](C)CC)C(=O)N[C@@H](CC(=O)O)C(=O)NCCCCNC(=N)N [Peptide P-20357, [Dat^1, D-Ala^2, N—Me-Ala^8, Orn^12, Abu^15, Orn^21, Nle^27, Asp^28, Agm^29]hGHRH (1-29)NH2] (Desaminotyrosyl-[dA]DAIFT[NMeA]SYR[Orn]VL[Abu]QLSAR[Orn]LLQDI[Nle]D-Agmatine) | 5.06 | 0.63 | 1.07 | 1.41 | 9.07 |  |
| CCCC[C@H](NC(=O)[C@@H](NC(=O)[C@H](CC(=O)O)NC(=O)[C@H](CCC(N)=O)NC(=O)[C@H](CC(C)C)NC(=O)[C@H](CC(C)C)NC(=O)[C@H](CCCN)NC(=O)[C@H](CCCNC(=N)N)NC(=O)[C@H](C)NC(=O)[C@H](CO)NC(=O)[C@H](CC(C)C)NC(=O)[C@H](CCC(N)=O)NC(=O)[C@H](CC)NC(=O)[C@H](CC(C)C)NC(=O)[C@@H](NC(=O)[C@H](CCCN)NC(=O)[C@H](CCCNC(=N)N)NC(=O)[C@H](Cc1ccc(O)cc1)NC(=O)[C@H](CO)NC(=O)[C@H](CC(N)=O)NC(=O)[C@@H](NC(=O)[C@H](Cc1c(F)c(F)c(F)c(F)c1F)NC(=O)[C@@H](NC(=O)[C@H](C)NC(=O)[C@H](CC(=O)O)NC(=O)[C@@H](C)NC(=O)[C@H](Cc1ccc(O)cc1)NC)[C@@H](C)CC)[C@@H](C)O)C(C)C)[C@@H](C)CC)C(=O)N[C@@H](CC(=O)O)C(=O)NCCCCNC(=N)N [Peptide P-20359, [N—Me-Tyr^1, D-Ala^2, Fpa5^6, Orn^12, Abu^15, Orn^21, Nle^27, Asp^28, Agm^29]hGHRH (1-29)NH2] (H-[NMeY][dA]DAI[Phe(F5)]TNSYR[Orn]VL[Abu]QLSAR[Orn]LLQDI[Nle]D-Agmatine) | 1.43 |  |  |  |  |  |
